According to patent US10906904B2, “ADO-resistant cysteamine analogs and uses thereof” (HORIZON ORPHAN LLC, priority 2015, dated 2021):
Like-named read-outs stand apart in the source and are kept apart here.

Tests used:
[1] = target: T1, human recombinant ADO (Homo sapiens, UniProt Q96SZ5); format: in vitro ADME
T1 sequence (Q96SZ5 1-270): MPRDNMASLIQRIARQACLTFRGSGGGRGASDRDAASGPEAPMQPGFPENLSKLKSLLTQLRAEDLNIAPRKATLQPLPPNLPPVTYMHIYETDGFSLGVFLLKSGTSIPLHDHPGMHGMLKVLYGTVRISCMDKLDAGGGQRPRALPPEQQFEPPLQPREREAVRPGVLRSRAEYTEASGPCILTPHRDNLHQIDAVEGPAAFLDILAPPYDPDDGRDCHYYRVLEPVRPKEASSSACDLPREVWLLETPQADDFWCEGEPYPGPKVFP
Experimental: The rate of ADO metabolism was determined by incubating 15 mM test compound with 60 μg/ml human recombinant ADO and 20 nM MitoXpress® O2-sensitive fluorescent probe (Luxcel) at 37° C. in assay buffer/salt in a sealed assay chamber. The initial rate of fluorescence (excitation λ380 nm and emission λ650 nm) increase was used to measure ADO-dependent oxygen depletion activity. The ability of ADO to metabolize compounds and concomitantly consume oxygen was expressed relative to that of 15 mM cysteamine.

[2] = test system: cystinotic human fibroblasts; assay: Cystine depletion assay; format: cell-based; conditions: for cystine depletion levels (in words): compared to cysteamine; for Cystine depletion: compound at 50 μM or 100 μM, Tables 1-3; for Emax: Homo sapiens, Fibroblast, 1 h; for Emax / Cystine Depletion (%): relative to cystine depletion by cysteamine (100%) at a similar concentration
Experimental: The ability of test compounds to deplete cystine from cystinotic human fibroblasts (Coriell) was determined by incubating compounds with cells for 60 min at 37° C., 95% (v/v) air/5% (v/v) CO2 in Minimal Essential Media Eagle. Treated cell samples were subsequently harvested, then homogenized to ensure plasma and lysosomal membrane disruption. Protein was removed by acid precipitation and cystine in the supernatant measured using LC-MS/MS and HILIC chromatography. Protein levels were determined and cystine levels reported as nM per mg/ml protein. Cystine levels after test compound treatment were expressed as a percentage of that of untreated control cells.
Compounds were assayed at a concentration of 50 μM or 100 μM according to the general methods described above.
Cystine depletion levels for the compounds are expressed in Table 4 as a percent relative to the cystine depletion achieved by cysteamine (c.f. cysteamine 100%) at a similar concentration.
Cystine depletion levels for each of the compounds in Table 5 are expressed as a percent relative to the cystine depletion achieved by cysteamine (c.f. cysteamine 100%) at a similar concentration.

[3] = test system: St-HdhQ^111/111 cells; assay: Glutamate-induced neuronal excitotoxicity assay; format: cell-based; conditions: STHdhQ111, 6 mM L-glutamate 24 hours, % of effect of 100 μM cysteamine; for viability at 10 µM: read-out: HdhQ^111/111 cell % survival (mean ± STD) Test Conc. 10 μM; for viability at 100 µM: read-out: HdhQ^111/111 cell % survival (mean ± STD) Test Conc. 100 μM
Experimental: The ability of test compounds to inhibit glutamate-induced excitotoxicity (neuroprotection) in St-HdhQ^111/111 cells was determined by incubating compounds with cells for 60 min at 33° C., 95% (v:v) air/5% (v:v) CO2 in Dulbecco's Modified Eagle Media. Following this, excitotoxicity was induced by the addition of 6 mM L-glutamate for 24 hours. Cell viability was assessed by measuring ATP levels using a luminescent-based CellTitre Glo assay (Promega). Compound neuroprotection (% cell survival) was expressed as a % of the effect recorded with 100 μM cysteamine (denoted as 100% cell survival).

[4] = Cystine reactivity assay; conditions: 30° C., percentage of 3 mM cysteamine
Experimental: Cystine reactivity was assessed by incubating 3 mM test compound with 100 nM BODIPY® FL L-Cystine (Life Tech.) at 30° C., pH 7.4 in phosphate buffer. […] Compound cystine reactivity was expressed as a percentage of that of 3 mM cysteamine.
Under resting conditions, the inherent fluorescence of BODIPY® FL L-cystine was very low due to the spatial proximity of the two BODIPY molecules causing quenching. Under chemical reaction (disruption of the S—S bond), the spatial distance was increased, the quenching lost, and measured fluorescence increased. Time (minutes) vs. fluorescence (relative fluorescence units—RFU) was plotted and linear regression analysis was performed to generate a slope value corresponding to the reaction rate in RFU/min and an R2 value.

[5] = Table 4, read-out: Cystine Depletion (%)
[6] = Table 5, read-out: Cystine Depletion (%) Mean Value

SC1CNC1 [Compound 2a]
metabolism by ADO compared to cysteamine (in words) [1]: significantly reduced metabolism by ADO compared to cysteamine
cystine depletion levels (in words) [2]: slightly decreased
Cystine depletion [2]: 82%

CC(C)(N)CS [Compound 3b]
cystine depletion levels (in words) [2]: similar
Cystine depletion [2]: 97%

CN1CC[C@H](SS[C@H]2CCN(C)C2)C1 [Compound 42343]
Emax [2, 5]: 84%

C[N+]1(C)CCC(S)CC1
viability at 10 µM [3]: 1 ± 6%
viability at 100 µM [3]: 16 ± 7%

CC(C)N1CCC(S)CC1 [Compound 42458]
Cystine Reactivity Assay (30° C.) (%) Mean Value ([4]; Table 4): >90%
Emax [2, 5]: 91%

C1CNC[C@H](SS[C@@H]2CCCNC2)C1 [Compound 145609]
ADO Metabolism Assay (%) Mean Value ([1]; human, 15 mM): <25%
Emax [2, 6]: 121%

N[C@H]1CCCC[C@@H]1S [Compound 42693]
Cystine Reactivity Assay (30° C.) (%) Mean Value ([4]; Table 4): >90%
Emax [2, 5]: 110%
viability at 10 µM [3]: 80 ± 10%
viability at 100 µM [3]: 77 ± 9%

CC(CS)Cc1ccccc1 (stereo not drawn) [Compound 2403]
Cystine Reactivity Assay (30° C.) (%) Mean Value ([4]; Table 5): <50%
ADO Metabolism Assay (%) Mean Value ([1]; human, 15 mM): <25%
Emax [2, 6]: 19%

C[C@H](CS)C(=O)N1CCC[C@H]1C(=O)O [Compound 653]
Cystine Reactivity Assay (30° C.) (%) Mean Value ([4]; Table 5): <50%
ADO Metabolism Assay (%) Mean Value ([1]; human): <25%
Emax [2, 6]: 23%

CC(C)(C)N1CCC(S)CC1 [Compound 145584]
Cystine Reactivity Assay (30° C.) (%) Mean Value ([4]; Table 5): >90%
ADO Metabolism Assay (%) Mean Value ([1]; human, 15 mM): <25%
Emax [2, 6]: 0%

Nc1nc2[nH]cnc2c(=S)[nH]1 [Compound 1141]
Cystine Reactivity Assay (30° C.) (%) Mean Value ([4]; Table 5): <50%
Emax [2, 6]: 0%

SC1CCCCNC1 (stereo not drawn) [Compound 42345]
Cystine Reactivity Assay (30° C.) (%) Mean Value ([4]; Table 4): >90%
ADO Metabolism Assay (%) Mean Value ([1]; human, 15 mM): <25%
Emax [2, 5]: 50%

SC[C@@H]1CCCCN1 [Compound 145592]
Cystine Reactivity Assay (30° C.) (%) Mean Value ([4]; Table 5): >90%
Emax [2, 6]: 156%
viability at 10 µM [3]: 17 ± 10%
viability at 100 µM [3]: 88 ± 8%

SC12CCN(CC1)CC2 [Compound 42389]
Cystine Reactivity Assay (30° C.) (%) Mean Value ([4]; Table 4): 50-90%
ADO Metabolism Assay (%) Mean Value ([1]; human, 15 mM): <25%
Emax [2, 5]: 36%

N[C@H]1C[C@H](S)C1 [Compound 142460]
Cystine Reactivity Assay (30° C.) (%) Mean Value ([4]; Table 5): 50-90%
Emax [2, 6]: 78%

C[C@H]1C[C@@H](S)CCN1 [Compound 42618]
Emax [2, 5]: 49%

N[C@H]1CC[C@@H](S)CC1 [Compound 42491]
Cystine Reactivity Assay (30° C.) (%) Mean Value ([4]; Table 4): <50%
ADO Metabolism Assay (%) Mean Value ([1]; human, 15 mM): <25%

CNCCS [Compound 18781]
Cystine Depletion (%) ([2]; Table 4): 92%

CN1CC(SSC2CN(C)C2)C1 [Compound 42151]
Emax [2, 5]: 133%

C[C@@H](N)CS (single isomer, unassigned) [Compound 42099]
Cystine Depletion (%) ([2]; Table 4): 79%

SCC1CNC1 [Compound 145585]
Cystine Reactivity Assay (30° C.) (%) Mean Value ([4]; Table 5): >90%
Emax [2, 6]: 11%
viability at 10 µM [3]: 13 ± 10%
viability at 100 µM [3]: 100 ± 9%

CNCCS [Compound 1a]
metabolism by ADO compared to cysteamine (in words) [1]: significantly reduced metabolism by ADO compared to cysteamine
cystine depletion levels (in words) [2]: slightly decreased cystine depletion levels
Cystine depletion [2]: 85%
Cystine depletion ( ) = disulfide efficacy ([2]; disulfide of the compound, 50 μM or 100 μM): (94%)

CN1CC[C@@H](S)C1
viability at 10 µM [3]: 13 ± 13%
viability at 100 µM [3]: 93 ± 9%

C[C@]1(S)CCCNC1 [Compound 151181]
Cystine Reactivity Assay (30° C.) (%) Mean Value ([4]; Table 5): 50-90%
Emax [2, 6]: 69%
viability at 10 µM [3]: 3 ± 8%
viability at 100 µM [3]: 90 ± 9%

CC1(S)CC(N)C1 (stereo not drawn) [Compound 152071]
Emax [2, 6]: 70%

NC1(CS)CC1 [Compound 3d]
metabolism by ADO compared to cysteamine (in words) [1]: significantly reduced metabolism by ADO compared to cysteamine
ADO metabolism ([1]; human, 15 mM): 14%
cystine depletion levels (in words) [2]: slightly decreased
Cystine depletion [2]: 55%

O=c1[nH][se]c2ccccc12 [Compound 145565]
Emax [2, 6]: 31%

CC(=O)SC1CCNCC1 [Compound 145692]
Emax [2, 6]: 75%

CN1C2CCC1CC(SSC1CC3CCC(C1)N3C)C2 (stereo not drawn) [Compound 42344]
Emax [2, 5]: 38%

CCN1CCC(S)CC1 [Compound 42391]
Cystine Reactivity Assay (30° C.) (%) Mean Value ([4]; Table 4): >90%
Emax [2, 5]: 60%

FC1(F)CCNC[C@@H]1S [Compound 42694]
Cystine Reactivity Assay (30° C.) (%) Mean Value ([4]; Table 4): <50%
Emax [2, 5]: 20%

SCC1CCN1 (stereo not drawn) [Compound 42212]
Cystine Reactivity Assay (30° C.) (%) Mean Value ([4]; Table 4): <50%

C[C@H](N)CS (single isomer, unassigned) [Compound 42-98]
Cystine Depletion (%) ([2]; Table 4): 70%

CC1(S)CCNC1 (stereo not drawn) [Compound 150731]
Cystine Reactivity Assay (30° C.) (%) Mean Value ([4]; Table 5): >90%
Emax [2, 6]: 58%

NC1CCC(S)C1 (stereo not drawn) [Compound 42691]
Cystine Reactivity Assay (30° C.) (%) Mean Value ([4]; Table 4): 50-90%

Oc1ccc2ccccc2c1SSc1c(O)ccc2ccccc12 [Compound 2415]
Emax [2, 6]: 14%

CC1(SSC2(C)CCNCC2)CCNCC1 [Compound 151272]
Emax [2, 6]: 11%

CC(C)(N)CS [Compound 42097]
Emax [2, 5]: 97%

CC1(C)CNCCC1S (stereo not drawn) [Compound 42609]
Emax [2, 5]: 17%

CN1CCCC(SSC2CCCN(C)C2)C1 (stereo not drawn) [Compound 42152]
Emax [2, 5]: 126%

CSC1(C)CCNCC1 [Compound 145691]
Emax [2, 6]: 0%

C[C@@]1(S)CCCNC1 [Compound 151182]
Cystine Reactivity Assay (30° C.) (%) Mean Value ([4]; Table 5): 59-90%
Emax [2, 6]: 59%
viability at 10 µM [3]: 1 ± 5%
viability at 100 µM [3]: 85 ± 11%

FC1(F)CN[C@H](CS)C1 [Compound 149611]
Cystine Reactivity Assay (30° C.) (%) Mean Value ([4]; Table 5): >90%
Emax [2, 6]: 27%
viability at 10 µM [3]: 35 ± 13%
viability at 100 µM [3]: 102 ± 13%

N[C@H]1CC[C@H](S)CC1 [Compound 42492]
Cystine Reactivity Assay (30° C.) (%) Mean Value ([4]; Table 4): <50%

NC1(CS)CC1 [Compound 41448]
ADO Metabolism Assay (%) Mean Value ([1]; human, 15 mM): 25-75%
Emax [2, 5]: 55%

CN1CC[C@H](S)C1
viability at 10 µM [3]: 11 ± 11%
viability at 100 µM [3]: 95 ± 6%

F[C@@H]1CNCC[C@H]1S
viability at 10 µM [3]: 3 ± 7%
viability at 100 µM [3]: 86 ± 10%

N[C@@H]1CCCC[C@@H]1S [Compound 42610]
Cystine Reactivity Assay (30° C.) (%) Mean Value ([4]; Table 4): >90%
Emax [2, 5]: 91%
viability at 10 µM [3]: 19 ± 6%
viability at 100 µM [3]: 77 ± 8%

N[C@H]1C[C@H](SS[C@H]2C[C@H](N)C2)C1 [Compound 151271]
Emax [2, 6]: 27%

Sc1ccncc1 [Compound 42338]
Cystine Reactivity Assay (30° C.) (%) Mean Value ([4]; Table 4): <50%

FC1(F)CN[C@@H](CS)C1 [Compound 149607]
Cystine Reactivity Assay (30° C.) (%) Mean Value ([4]; Table 5): >90%
Emax [2, 6]: 17%
viability at 10 µM [3]: 32 ± 9%
viability at 100 µM [3]: 98 ± 12%

CN1CC[C@@H](SS[C@H]2CCN(C)C2)C1 [Compound 42342]
Emax [2, 5]: 91%

C[C@H]1CCNC[C@@H]1S [Compound 42612]
Emax [2, 5]: 98%

N[C@H]1C[C@@H](SS[C@H]2C[C@@H](N)C2)C1 [Compound 151270]
Emax [2, 6]: 3%

N[C@@H]1CCCC[C@H]1S [Compound 42692]
Cystine Reactivity Assay (30° C.) (%) Mean Value ([4]; Table 4): >90%
Emax [2, 5]: 100%
viability at 10 µM [3]: 82 ± 4%
viability at 100 µM [3]: 71 ± 5%
